Assay results published in ChEMBL document CHEMBL1138026, “Ketopyrrolidines and ketoazetidines as potent dipeptidyl peptidase IV (DPP IV) inhibitors” (Bioorg Med Chem Lett, 2004).

Tests used:
[1] = Inhibitory concentration against dipeptidyl peptidase IV
[2] = Inhibition constant against dipeptidyl peptidase IV

SMILES	IC50 [1]	Ki [2]
O=C(c1nc2ccccc2s1)[C@@H]1CCN1C(=O)CNC1CCCCC1	0.19 µM	–
C[C@H](N)C(=O)N1CCCC1P(=O)(Oc1ccccc1)Oc1ccccc1 (stereo not given in full)	0.015 µM	–
O=C(c1nc2ccccc2s1)[C@@H]1CCCN1C(=O)CNC1CCCCC1	0.3 µM	–
O=c1c(C2CCCCC2)nc(-c2nccs2)c2n1CCC2	> 100 µM	–
CCC(C)C(N)C(=O)N1CCC[C@H]1C(=O)c1nc2ccccc2s1 (stereo not given in full)	0.1 µM	–
CC[C@H](C)[C@H](N)C(=O)N1CC[C@H]1C(=O)c1nc2ccccc2s1	0.2 µM	–
CC(C)(C)NCC(=O)N1CCC1C(=O)c1nc2ccccc2s1 (stereo not given)	0.1 µM	–
O=C(c1nc2ccccc2s1)C1CCN1C(=O)[C@@H]1C[C@@H]2CCCC[C@@H]2N1 (stereo not given in full)	0.115 µM	–
O=C(c1ccccc1)[C@@H]1CCCN1C(=O)[C@@H]1C[C@@H]2CCCC[C@@H]2N1	> 100 µM	–
O=C(c1cccnc1)[C@@H]1CCCN1C(=O)[C@@H]1C[C@@H]2CCCC[C@@H]2N1	> 100 µM	–
Cn1cncc1C(=O)[C@@H]1CCCN1C(=O)[C@@H]1C[C@@H]2CCCC[C@@H]2N1	> 100 µM	–
CC(C)[C@H](N)C(=O)N1CCC[C@H]1B(O)O [TALABOSTAT]	–	0.002 µM

Second part, led by results:

IC50 [1]	SMILES	Ki [2]
> 100 µM	N[C@@H](C(=O)N1CCCC[C@H]1C(=O)c1nccs1)C1CCCCC1	–
0.04 µM	N[C@@H](C(=O)N1CC[C@@H]1C(=O)c1nccs1)C1CCCCC1	–
1 µM	N[C@@H](C(=O)N1CCC[C@@H]1C(=O)c1nccs1)C1CCCCC1	–
> 100 µM	N[C@@H](C(=O)N1CCCC[C@@H]1C(=O)c1nccs1)C1CCCCC1	–
0.15 µM	N[C@H](C(=O)N1CCSC1)C1CCCCC1	–
0.125 µM	N[C@H](C(=O)N1CCCC1)C1CCCCC1	–
0.008 µM	N#C[C@@H]1CCCN1C(=O)[C@@H](N)C1CCCCC1	–
> 100 µM	CC(=O)[C@@H]1CCCN1C(=O)[C@@H]1C[C@@H]2CCCC[C@@H]2N1	–
